Among the test systems are MDA-MB-435; OVCAR-3 ovarian; NCI-H460 lung; HCT-15 colon; SNB-19 CNS; PC-3 prostate; HL-60(TB) leukemia; UO-31 renal; TK-10 renal; NCI-H23 lung.
What all share (assay): inhibition of tumour cell growth, NCI panel, 48 h

Among the data in PubChem BioAssay (NCI) are GI50 and TGI values, retold here.

SMILES strings stand for the structures. Values joined by “and” are separate entries in the source; they are usually repeats but may differ in a detail not shown here. Equal values may be shown once.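 Protocol summary: plate cells (96-well), add compound at 5 concentrations, incubate 48 h, interpolate endpoints linearly. The concentration for 50% growth inhibition is given as GI50. The concentration for full growth arrest is given as TGI.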

Turning to `CC(=O)NC1(C(=O)N[C@@H](Cc2ccccc2)C(=O)NC2CCCCC2)Cc2ccc3ccccc3c2-c2c(ccc3ccccc23)C1`, the GI50 is 3.74 µM and 9.85 µM with MDA-MB-435; 2.91 µM and 7.77 µM in the test on OVCAR-3 ovarian; 11 µM and 28.8 µM with SNB-19 CNS; 2.87 µM and 6.4 µM in the test with PC-3 prostate; 2.8 µM and 11.8 µM in the test with UO-31 renal. The TGI with MDA-MB-435, in the test with OVCAR-3 ovarian, in the test on NCI-H460 lung, with HCT-15 colon, in the test on SNB-19 CNS and with PC-3 prostate was over 100 µM each time. Further, the TGI in the test with HL-60(TB) leukemia was 26.2 µM and 27.4 µM; in the test with UO-31 renal, 22.9 µM and 45.9 µM.
Consider `CCC(=O)/C(=C\I)c1ccccc1`, for which the TGI in the test on MDA-MB-435 was 10.4 µM; in the test on OVCAR-3 ovarian, 3.12 µM; in the test with NCI-H460 lung, 25.5 µM; with HCT-15 colon, 3.37 µM; in the test on SNB-19 CNS it was 29 µM; in the test with TK-10 renal, 28.3 µM. For the same compound, the TGI with PC-3 prostate was found to be 9.34 µM; in the test with HL-60(TB) leukemia it was 6.35 µM; in the test on NCI-H23 lung, 14.4 µM; in the test with UO-31 renal, 4.2 µM.
On to `COc1ccc2c(c1)c1nn(CCN3CCCCC3)c3ccc4c(=O)n(CCN(C)C)c(=O)n2c4c13`, for which the TGI was 0.088 µM in the test on MDA-MB-435; 0.344 µM in the test with OVCAR-3 ovarian; under 0.0216 µM in the test with NCI-H460 lung; 0.0825 µM in the test with HCT-15 colon; 0.532 µM with SNB-19 CNS; 0.44 µM with TK-10 renal. The TGI with PC-3 prostate was found to be 0.603 µM; with HL-60(TB) leukemia it was 0.511 µM; with NCI-H23 lung, 0.627 µM; in the test with UO-31 renal, 0.354 µM.
As to `O=[N+]([O-])c1ccc(O)c(/C=N/c2nc(-c3ccccc3)cs2)c1`, the TGI was over 100 µM in the test on MDA-MB-435; over 100 µM in the test with OVCAR-3 ovarian; over 86.7 µM in the test with NCI-H460 lung; over 89.7 µM in the test on HCT-15 colon; over 100 µM in the test on SNB-19 CNS; over 75.4 µM in the test on TK-10 renal. Besides, the TGI with PC-3 prostate is over 100 µM; in the test with HL-60(TB) leukemia, over 100 µM; in the test with NCI-H23 lung, 49.6 µM; in the test on UO-31 renal, over 86.4 µM.
Take `COc1ccc(C2SCC(=O)N2NC(=O)C(C)Oc2ccccc2C)cc1` (stereo not drawn): the TGI with MDA-MB-435, in the test with OVCAR-3 ovarian, in the test on NCI-H460 lung, in the test on HCT-15 colon, in the test with SNB-19 CNS and in the test on TK-10 renal was over 100 µM each time. Further, the TGI with PC-3 prostate was over 100 µM; in the test on HL-60(TB) leukemia, 61.2 µM; in the test on NCI-H23 lung, over 100 µM; with UO-31 renal, over 100 µM.
In the case of `Cc1ccc2c(C(=O)c3c(C)n(CCN4CCOCC4)c4ccccc34)cccc2c1`, the TGI was 5.42 µM in the test with MDA-MB-435; 12.4 µM in the test on OVCAR-3 ovarian; 89.3 µM with NCI-H460 lung; 35.4 µM with HCT-15 colon; over 100 µM with SNB-19 CNS; 55.6 µM in the test with TK-10 renal. The TGI in the test with PC-3 prostate is 43.2 µM; in the test with HL-60(TB) leukemia, 10.4 µM; with NCI-H23 lung it was over 100 µM; in the test on UO-31 renal, over 100 µM.
As to `CCOc1ccc(/C=C2\NC(=S)N(/C=C3\C(=O)Oc4ccccc4C3=O)C2=O)cc1`, the TGI came out at 78.3 µM with MDA-MB-435; 44.6 µM in the test with OVCAR-3 ovarian; 51.8 µM in the test on NCI-H460 lung; 49.9 µM in the test on HCT-15 colon; 59.8 µM in the test with SNB-19 CNS; 49.6 µM in the test on TK-10 renal. The TGI in the test on PC-3 prostate came out at 42.3 µM; in the test with HL-60(TB) leukemia, 33.7 µM; with NCI-H23 lung, 80.8 µM; in the test with UO-31 renal it was 49.4 µM.
Take `CC(=O)OC(C)c1cc2c(s1)C(=O)c1c(C(C)OC(C)=O)csc1C2=O` (stereo not drawn): the GI50 is 0.185 µM in the test with MDA-MB-435, 0.278 µM with OVCAR-3 ovarian, 0.0682 µM with HL-60(TB) leukemia and 0.878 µM with NCI-H23 lung. The TGI in the test on MDA-MB-435 was 0.34 µM; in the test with OVCAR-3 ovarian, 0.724 µM; in the test with NCI-H460 lung, 1.58 µM; with HCT-15 colon, 4.4 µM; in the test with TK-10 renal it was 5.69 µM; in the test with PC-3 prostate, 6.6 µM. For the same compound, the TGI in the test on HL-60(TB) leukemia amounted to 2.15 µM; in the test on NCI-H23 lung, 2.29 µM; in the test with UO-31 renal, 2.9 µM.
Turning to `COC(=O)c1cccc(OC)c1C#Cc1c(OC)cccc1OC`, the TGI in the test on MDA-MB-435, in the test with OVCAR-3 ovarian, with NCI-H460 lung, in the test with HCT-15 colon, with SNB-19 CNS and in the test with TK-10 renal was over 100 µM each time. In addition, the TGI in the test on PC-3 prostate, in the test on HL-60(TB) leukemia, with NCI-H23 lung and in the test on UO-31 renal was over 100 µM throughout.
For `N=c1oc2ccccc2cc1-c1nc2ccccc2c(=O)[nH]1`, the TGI with MDA-MB-435, in the test with NCI-H460 lung, in the test with HCT-15 colon, in the test on SNB-19 CNS, in the test on TK-10 renal and in the test on PC-3 prostate was over 100 µM in each case. In addition, the TGI in the test on HL-60(TB) leukemia and in the test on UO-31 renal was over 100 µM in each case.
For the compound `COC1(c2cccs2)c2ccccc2C(OC)(c2cccs2)c2ccccc21` (stereo not drawn), the TGI in the test on MDA-MB-435, with OVCAR-3 ovarian, with NCI-H460 lung, in the test with HCT-15 colon, in the test on SNB-19 CNS and in the test with TK-10 renal was over 100 µM throughout. In addition, the TGI in the test on PC-3 prostate, in the test with HL-60(TB) leukemia, in the test with NCI-H23 lung and in the test with UO-31 renal was over 100 µM throughout.
On to `COC12C=CC(C=C1C#N)CC2` (stereo not drawn) (tested in a mixture with another compound), for which the TGI with MDA-MB-435, in the test with OVCAR-3 ovarian, with NCI-H460 lung, in the test on HCT-15 colon, with SNB-19 CNS and with TK-10 renal was over 100 µM throughout. Also, the TGI in the test with PC-3 prostate, in the test with HL-60(TB) leukemia, in the test with NCI-H23 lung and in the test on UO-31 renal was over 100 µM each time.
For the compound `c1csc(-c2ccsc2-c2ccsc2)c1`, the TGI is over 100 µM with MDA-MB-435; 87.6 µM in the test on OVCAR-3 ovarian; over 100 µM in the test on NCI-H460 lung; over 100 µM in the test on HCT-15 colon; over 100 µM with TK-10 renal; over 100 µM in the test on PC-3 prostate. Further, the TGI with HL-60(TB) leukemia, in the test on NCI-H23 lung and in the test with UO-31 renal was over 100 µM in each case.
